The text below walks through data of publication PMC6838151 (Scientific Reports, 2019).

≈ marks a conversion by molar mass, not a printed value. Like-named read-outs stand apart in the source and are kept apart here. Where only a bound is given, the exact number is not on record here.

Data set [1] relates to S. cerevisiae WT (BY4741). As to the kind of experiment: MIC50 growth inhibition, S. cerevisiae wt BY4741, 48 h. In kind it is cell-based, Saccharomyces cerevisiae. The conditions noted are these: YPD, 30 °C. The text has this: (§1) For the preliminary studies of the biological activity of the studied compound we chose S. cerevisiae, which is generally considered a non-pathogenic organism, but currently recognized as a potentially important agent causing opportunistic infections against immunocompromised patients. In order to assess whether all the Ke derivatives share the mechanism of action with the parent compound, or if they might present different or additional modes of action, the inhibitory concentration MIC50 (Table 2) was determined on the basis of the dose-response curves (Fig. S11 in ESI) in a 48 h assay against S. cerevisiae wt strain BY4741 and the deletion mutant erg6Δ, which lacks the gene coding for the S-adenosylmethionine: 24-methyltransferase[52], accumulating cholesta-5,7,24-trienol and zymosterol instead of ergosterol. There are several studies reporting that the ERG6 gene deletion may increase the resistance of S. cerevisiae cells to azole compounds[54]–[56]. […] The value determined for the wt strain is in very good agreement with previous studies carried out under similar condition (48 h, 30 °C) (e.g.[57]).
(§2) The following strains of S. cerevisiae were used in this study: BY4741 (wild type towards erg6Δ, ACC Y00000; MATa; his3Δ1; leu2Δ0; met15Δ0; ura3Δ0), erg6Δ (ACC Y00568; BY4741 isogenic with YML008c::kanMX4), W303 (wild type towards AD1-8; MATα; leu2-3,112 trp1-1 can1-100 ura3-1 ade2-1 his3-11,15 AD1-8 (W303 isogenic with pdr1-3, ura3, his1, yor1∆::hisG, snq2∆::hisG, pdr5∆::hisG, pdr10∆::hisG, pdr11∆:: hisG, ycf1∆::hisG, pdr3∆::hisG, pdr15∆::hisG). BY4741 and erg6Δ were acquired from EUROSCARF, Frankfurt, Germany; W303 and AD1-8 were kind gifts from Prof. A. Goffeau, Chaire Internationale Blaise Pascal, Lab. Genet. Mol., École Normale Supérieure, Paris, and Prof. M. Ghislain, Université Catholique de Louvain, Faculté des sciences Agronomiques, Louvain-la-Neuve, Belgium. Visible turbid overnight cultures of S. cerevisiae strains were prepared and diluted to A600 ≈ 0.1 in fresh Yeast Extract – Peptone - Dextrose (YPD) medium. The cultures were transferred to 96 microtiter well plates containing aliquots of serially diluted antifungal drugs (Ke and its derivatives: KeP, KeOP, KeSP, KeSeP), prepared from DMS stock solutions and drug-free controls. The yeast cultures were statically incubated at 30 °C for 48 hours with compounds[88]. The dose-response curves were analysed with GraphPad Prism 5 software (San Diego, USA) or a microplate reader ASYS UVM (Biogenet). All values presented are the mean of at least three independent experiments.

A further data set relates to S. cerevisiae erg6Δ. As to the kind of experiment: MIC50 growth inhibition, S. cerevisiae erg6Δ deletion mutant, 48 h. It is filed as cell-based, Saccharomyces cerevisiae.
From the text: as §1, §2

The next data set concerns C. albicans CAF2-1. In words: microbe, parasite or virus in culture. In kind it is cell-based, Candida albicans. The following applies: for effect of combination with higher Flc concentrations: KeP (0.39 uM) / KeOP (1.56 uM) combined with 3.25 and 6.25 uM Flc, CAF2-1. The protocol: The synergistic effects of KeOP/KeP with Flc were determined using the M27-A3 method with modifications. Flc and KeOP/KeP stock solutions in DMSO (10 mM) were (alone and simultaneously) diluted in RPMI-1640 medium to obtain final concentrations of^1/8; ^1/4; ^1/2; 1 × MIC50 towards C. albicans CAF2-1 strain in microdilution sterile plates (Sarstedt). Statistical significance analysis was performed using Student’s t-test ([…], unpaired) comparing viability in the presence of corresponding Flc concentrations with/without KeOP/KeP.

Data set [2] deals with hASCs (p53, p21, BAX, BCL-2 transcripts). In words: Apoptosis-related transcripts by qRT-PCR in hASCs. In kind it is cell-based, human. The following applies: 20 µM, 24 h; for expression of p53 gene / expression of p21 transcript / relative expression level of BAX / relative expression level of BCL-2: hASCs; for expression of p53 gene: vs control cells; for expression of p21 transcript: vs control group, p < 0.001; for relative expression level of BAX / relative expression level of BCL-2: vs control, differences not significant. The protocol: Cellular apoptosis level was assessed using quantitative reverse transcriptase real-time polymerase chain reaction (qRT-PCR). First, the cells were seeded in a 24-well plate at a concentration of 3 × 10^4 cells/well in DMEM with Nutrient F-12 Ham complete medium and left in the CO2 incubator overnight to allow cells to attach. […] After 24 h of challenge with the compounds, the cells were homogenized with TRI Reagent and total RNA was isolated by phenol-chloroform extraction and ethanol precipitation. RNA purity and quantity were measured at a wavelength of 260 and 280 nm (Epoch, Biotek). Genomic DNA was removed with DNase I, RNase-free ([…]) (Thermo Scientific, Poland) and cDNA was synthesized using RevertAid First Strand cDNA Synthesis Kit (Thermo Scientific, Poland). 150 ng of total RNA served as a template for a single reaction using T100 Thermo Cycler (Bio-Rad, USA). The expression levels of p53 tumor suppressor, cyclin dependent kinase inhibitor 1A (p21), apoptosis regulators BAX and BCL-2 were determined. qRT-PCR was performed on a CFX Connect^TM Real-Time PCR Detection System (Bio-Rad) using SensiFast SYBR & Fluorescein Kit (Bioline, Cincinnati, OH, USA) and primer pairs as listed in Table S4 in ESI. 500 nM of specific primers and 1 µL of cDNA in a 10 µL final volume were applied in each reaction. The quantitative expression of the genes was calculated by the 2^−ΔΔCT method using GAPDH as housekeeping genes.
Statistical analysis was performed with GraphPad Prism 5 software (San Diego, USA). All data values are presented as mean ± SD, measured in triplicates or more. Statistical significance between groups was determined using two-way ANOVA grouped analysis.

The test system of a further data set is hASCs. As to the kind of experiment: Confocal imaging of mitochondrial network (MitoRed) and F-actin (Phalloidin Atto 590) in hASCs. In kind it is cell-based, human. The conditions noted are these: 20 µM, 24 h. The protocol:
The mitochondrial network was visualized using MitoRed staining. After 24-hours treatment with either Ke, KeP or KeOP, the media were removed and replaced with MitoRed dye in 1:1000 dilution in fresh complete media. Cells were incubated for 30 minutes at 37 °C, then washed with Phosphate Buffered Saline (PBS), fixed with 4% paraformaldehyde (PFA) solution, washed three times and nuclei were counterstained with diamidino-2-phenylindole (DAPI).
In order to perform F-actin imaging, cells were fixed with 4% PFA solution, washed with PBS and then permeabilized using 0.5% TX-100 (incubation 15 minutes, room temperature). The cells were rinsed and incubated with Phalloidin-Atto 590 solution in PBS (dilution 1:1000) at 37 °C for 30 minutes in the dark. After washing, the cells were counterstained with DAPI.
Cells were observed and images were taken using confocal microscopy performed with a Leica TCS-SP8 laser scanning confocal microscope. Data were further processed with the use of ImageJ software.

Where [3] appears, read: Saccharomyces cerevisiae, read-out: MIC50.
[4] abbreviates: Candida albicans, CAF21, read-out: Viability of C. albicans CAF2-1.
[5] abbreviates: S. cerevisiae erg6Δ, YPD, 30 °C.

A word on the MIC50: it is the lowest concentration that inhibits either 50% of growth or 50% of the strains tested, depending on the study. By viability is commonly meant a read-out of living cells in per cent, often relative to untreated cells. Consider `O=P(CN1CCN(c2ccc(OC[C@H]3CO[C@](Cn4ccnc4)(c4ccc(Cl)cc4Cl)O3)cc2)CC1)(c1ccccc1)c1ccccc1` (racemic) [KeOP, Ph2P(O)CH2-Ke], for which the MIC50 in data set [1] (setting [3]) turned out to be 0.00416 µM (≈ 0.00293 µg/mL). In the data set with S. cerevisiae erg6Δ (Saccharomyces cerevisiae), this molecule gave an MIC50 of 0.00482 µM (≈ 0.00339 µg/mL). In the data set on C. albicans CAF2-1 (setting [4]), the viability at 0.1 µM is 102 ± 2.22%, the viability at 0.2 µM was found to be 93.9 ± 7.22% and the viability at 0.39 µM worked out at 91.2 ± 10.7%. In addition, the “effect of combination with higher Flc concentrations” value in the data set on C. albicans CAF2-1 is given as “fungicidal effect”. For the same molecule, in data set [2], the “induction of apoptosis in hASC cultures” value was “did not induce apoptosis”, the “expression of p53 gene” value is reported as “no significant changes”, the “expression of p21 transcript” value is “elevated expression” and the “relative expression level of BAX” value is listed as “higher”. Moreover, the “relative expression level of BCL-2” value in data set [2] was “higher”.

On to `Clc1ccc([C@@]2(Cn3ccnc3)OC[C@H](COc3ccc(N4CCN(CP(c5ccccc5)c5ccccc5)CC4)cc3)O2)c(Cl)c1` (racemic) [KeP, Ph2PCH2-Ke], for which, in data set [1] (setting [3]), the MIC50 was found to be 9.02 µM (≈ 6.2 µg/mL). This molecule registered an MIC50 against S. cerevisiae erg6Δ (Saccharomyces cerevisiae) of 0.654 µM (≈ 0.45 µg/mL). The “MIC50 of Flc in combination” value in the data set on C. albicans CAF2-1 (C. albicans CAF2-1, with KeP (0.39 uM), reduced from 6.25 uM) came to 1.56 µM. In the data set on C. albicans CAF2-1 (setting [4]), the viability at 0.39 µM was determined as 115 ± 9.06%, the viability at 0.78 µM was 102 ± 1.98% and the viability at 1.56 µM is 96.8 ± 3.21%. Further, in the data set on C. albicans CAF2-1, the “effect of combination with higher Flc concentrations” value was “fungicidal effect”. Besides, in data set [2], the “induction of apoptosis in hASC cultures” value is given as “did not induce apoptosis”, the “expression of p53 gene” value was “no significant changes”, the “expression of p21 transcript” value is listed as “elevated expression” and the “relative expression level of BAX” value is on record as “higher”. Also, the “relative expression level of BCL-2” value in data set [2] is reported as “higher”. In addition, in the data set with hASCs, the “mitochondrial membrane potential (MitoRed staining)” value is listed as “lowest mitochondrial membrane potential” and the “number of mitochondria (MitoRed staining)” value is recorded as “lowest number of mitochondria”.

With `CC(=O)N1CCN(c2ccc(OCC3COC(Cn4ccnc4)(c4ccc(Cl)cc4Cl)O3)cc2)CC1` (stereo not shown) [Ke, ketoconazole, reference compound], the MIC50 in data set [1] (setting [3]) was 0.865 µM (≈ 0.46 µg/mL); against S. cerevisiae erg6Δ (setting [5]), “no activity”; with S. cerevisiae erg6Δ (Saccharomyces cerevisiae), above 200 µM. Moreover, the “induction of apoptosis in hASC cultures” value in data set [2] is on record as “did not induce apoptosis”. The “expression of p53 gene” value in data set [2] was “no significant changes”. The “expression of p21 transcript” value in data set [2] is reported as “elevated expression”.

For the molecule `S=P(CN1CCN(c2ccc(OC[C@H]3CO[C@](Cn4ccnc4)(c4ccc(Cl)cc4Cl)O3)cc2)CC1)(c1ccccc1)c1ccccc1` [KeSP, Ph2P(S)CH2-Ke], the MIC50 was above 200 µM in data set [1] (setting [3]), “inactive” in data set [1], “inactive” against S. cerevisiae erg6Δ (setting [5]) and above 200 µM with S. cerevisiae erg6Δ (Saccharomyces cerevisiae).

For the molecule `Clc1ccc([C@@]2(Cn3ccnc3)OC[C@H](COc3ccc(N4CCN(CP(=[Se])(c5ccccc5)c5ccccc5)CC4)cc3)O2)c(Cl)c1` [KeSeP, Ph2P(Se)CH2-Ke], the MIC50 came out at 1.24 µM (≈ 0.954 µg/mL) in data set [1] (setting [3]) and 0.578 µM (≈ 0.443 µg/mL) in the data set with S. cerevisiae erg6Δ (Saccharomyces cerevisiae).
